The text below walks through data of patent publication US6956040B2, “Oxazolidinone piperazinyl derivatives as potential antimicrobials” (Ranbaxy Laboratories Limited, priority 2001, dated 2005).

What all share (assay): MIC, agar incorporation method
One assay relates to MRSA 15187. It is filed as cell-based, Staphylococcus aureus. The settings on record: MRSA 15187; agar incorporation. From the text: (§1) The compounds of the invention display antibacterial activity when tested by the agar incorporation method. The following minimum inhibitory concentrations (μg/ml) were obtained for representative compounds of the invention which are given below in the following tables.
(§2) • 1) S.aureus ATCC 25923—Staphylococus aureus ATCC 25923 • 2) MRSA 15187—Methicillin Resistant Staphylococcus aureus • 3) Ent. faecalis ATCC 29212—Enterococcus faecalis ATCC 29212 • 4) Ent. faecium 6A—Enterococcus faecium 6A Van®, Cipro® • 5) Strep. pne. ATCC 6303—Streptococcus pneumoniae ATCC 6303 • 6) Strep. pyog. ATCC 19615—Streptococcus pyogenes • 7) S. epidermidis—Staphylococcus epidermidis ATCC 12228
(§3) Briefly, the compounds were dissolved in DMSO and doubling dilution of the compounds were incorporated into Meuller Hilton agar before solidification. Inoculum was prepared by suspending 4 to 5 colonies into 5 ml of normal saline solution and adjusting the turbidity to 0.5 Macfarland turbidity standard tables (1.5×10^8 CFU/ml), after appropriate dilutions, 10^4 CFU/spot was transfered into the surface of dried plate and incubated for 18 hours (24 hours for MRSN studies). The concentration showing no growth of the inoculated culture was recorded as the MIC. Appropriate ATCC standard strains were simultaneously tested and result recorded only when the MIC's against standard antibiotics were within the acceptable range.

In a further assay the test system is S. aureus 25923. Format: cell-based, Staphylococcus aureus. The settings on record: S. aureus 25923; agar incorporation.
Excerpt: as §1, §2, §3

Another assay has as its system S. pneum AB 34. Format: cell-based, Streptococcus pneumoniae. The settings on record: S. pneum AB 34; agar incorporation. The protocol:
as §1, §3

Another assay has as its system MRSA 33. It is filed as cell-based, Staphylococcus aureus. Particulars: MRSA 33; agar incorporation. The protocol:
as §1, §3

Another assay concerns MRSA 562. It is filed as cell-based, Staphylococcus aureus. Particulars: MRSA 562; agar incorporation; Table 1. The protocol: as §1, §3
Another assay has as its system S. pneum 6303. It is filed as cell-based, Streptococcus pneumoniae. The settings on record: S. pneum 6303; agar incorporation.
Excerpt: as §1, §2, §3

A further assay deals with E. faecalis 29212. Format: cell-based, Enterococcus faecalis. The settings on record: E. faecalis 29212; agar incorporation.
Excerpt: as §1, §2, §3

The next assay deals with S. pyogenes 19615. Format: cell-based, Streptococcus pyogenes. Particulars: S. pyogenes 19615; agar incorporation.
Excerpt: as §1, §2, §3

For another assay, the system named is VRE 6A. Format: cell-based, Enterococcus faecium. Particulars: VRE 6A; agar incorporation.
Excerpt: as §1, §2, §3

Each structure is given as a SMILES string. Converted amounts (≈) assume the structure as drawn.

Regarding `CC(=O)NC[C@H]1CN(c2ccc(N3CCN(Cc4ccc(C=O)o4)CC3)c(F)c2)C(=O)O1` [Compound No. 02, (S)-N-[[3-[3-Fluoro-4-[N-1[4-{2-furyl(5-formyl)methyl}]piperazinyl]phenyl]-2-oxo-5-oxazolidinyl]methyl]acetamide], the MIC (usually the smallest concentration in the dilution series that meets the test's criterion for growth inhibition) with MRSA 15187 was 2 µg/mL (≈ 4.5 µM); in the assay with S. aureus 25923, 1 µg/mL (≈ 2.25 µM); in the assay on S. pneum AB 34 it was 8 µg/mL (≈ 18 µM); in the assay with MRSA 33, 2 µg/mL (≈ 4.5 µM); in the assay with MRSA 562, 1 µg/mL (≈ 2.25 µM); against S. pneum 6303, 4 µg/mL (≈ 9 µM). Further, the MIC against E. faecalis 29212, against S. pyogenes 19615 and against VRE 6A was 8 µg/mL (≈ 18 µM) throughout.
Regarding `CC(=O)NC[C@H]1CN(c2ccc(N3CCN(Cc4cccs4)CC3)c(F)c2)C(=O)O1` [Compound No. 12, (S)-N-[[3-[3-Fluoro-4-[N-1[4-(2-thienylmethyl)]piperazinyl]-phenyl]-2-oxo-5-oxazolidinyl]methyl]acetamide], the MIC against MRSA 15187, against S. aureus 25923, against S. pneum AB 34, in the assay on MRSA 33, in the assay on MRSA 562 and with S. pneum 6303 was 8 µg/mL (≈ 18.5 µM) throughout. Further, the MIC in the assay with E. faecalis 29212 was 8 µg/mL (≈ 18.5 µM); in the assay on S. pyogenes 19615 it was 4 µg/mL (≈ 9.25 µM); with VRE 6A, 8 µg/mL (≈ 18.5 µM).
Regarding `CC(=O)NC[C@H]1CN(c2ccc(N3CCN(Cc4cc(Br)cs4)CC3)c(F)c2)C(=O)O1` [Compound No. 14, (S)-N-[[3-[3-Fluoro-4-[N-1[4-{2-thienyl(4-bromo)methyl}]-piperazinyl]phenyl]-2-oxo-5-oxazolidinyl]methyl]acetamide], the MIC with MRSA 15187 turned out to be 2 µg/mL (≈ 3.91 µM); with S. aureus 25923, 4 µg/mL (≈ 7.82 µM); against S. pneum AB 34, 4 µg/mL (≈ 7.82 µM); against MRSA 33 it was 2 µg/mL (≈ 3.91 µM); against MRSA 562, 2 µg/mL (≈ 3.91 µM); with S. pneum 6303 it was 4 µg/mL (≈ 7.82 µM). Moreover, the MIC against E. faecalis 29212, in the assay on S. pyogenes 19615 and in the assay on VRE 6A was 2 µg/mL (≈ 3.91 µM) each time.
`CC(=O)NC[C@H]1CN(c2ccc(N3CCN(Cc4cccn4C)CC3)c(F)c2)C(=O)O1` [Compound No. 22, (S)-N[[3-[3-Fluoro-4-[N-1[4-{2-pyrrole(1-methyl)methyl}]-piperazinyl]phenyl]2-oxo-5-oxazolidinyl]methyl]acetamide]: the MIC was found to be 8 µg/mL (≈ 18.6 µM) with MRSA 15187; 2 µg/mL (≈ 4.66 µM) with S. aureus 25923; 1 µg/mL (≈ 2.33 µM) in the assay on S. pneum AB 34; 8 µg/mL (≈ 18.6 µM) against MRSA 33; 4 µg/mL (≈ 9.31 µM) against MRSA 562; 1 µg/mL (≈ 2.33 µM) in the assay on S. pneum 6303. The MIC with E. faecalis 29212 was found to be 8 µg/mL (≈ 18.6 µM); against S. pyogenes 19615 it was 1 µg/mL (≈ 2.33 µM); in the assay with VRE 6A it was 8 µg/mL (≈ 18.6 µM).
Consider `CC(=O)NC[C@H]1CN(c2ccc(N3CCN(Cc4ccc(Br)s4)CC3)c(F)c2)C(=O)O1` [Compound No. 27], for which the minimal inhibitory concentration (MIC) stood at 2 µg/mL (≈ 3.91 µM) in the assay with MRSA 15187; 2 µg/mL (≈ 3.91 µM) against S. aureus 25923; 0.5 µg/mL (≈ 0.978 µM) in the assay on S. pneum AB 34; 2 µg/mL (≈ 3.91 µM) against MRSA 33; 2 µg/mL (≈ 3.91 µM) with MRSA 562; 2 µg/mL (≈ 3.91 µM) in the assay with S. pneum 6303. The MIC worked out at 2 µg/mL (≈ 3.91 µM) in the assay with E. faecalis 29212, 1 µg/mL (≈ 1.96 µM) against S. pyogenes 19615 and 4 µg/mL (≈ 7.82 µM) against VRE 6A.
Turning to `CC(=O)NC[C@H]1CN(c2ccc(N3C[C@@H]4[C@H](C3)[C@H]4N(C)Cc3ccc([N+](=O)[O-])s3)c(F)c2)C(=O)O1` [Compound No. 34, (S)-N-[[3-[3-Fluoro[4-[3-(1α,5α,6α)-6-[N-(5-nitro-2-thienyl-methyl)-N-methyl]amino]-3-azabicyclo-[3.1.0]hexane]phenyl]-2-oxo-5-oxazolidinyl]methyl]acetamide], the MIC came to 1 µg/mL (≈ 1.99 µM) against MRSA 15187; 1 µg/mL (≈ 1.99 µM) in the assay with S. aureus 25923; 4 µg/mL (≈ 7.94 µM) against S. pneum AB 34; 1 µg/mL (≈ 1.99 µM) against MRSA 33; 1 µg/mL (≈ 1.99 µM) against MRSA 562; 4 µg/mL (≈ 7.94 µM) in the assay with S. pneum 6303. Also, the figures for the MIC with E. faecalis 29212, with S. pyogenes 19615 and with VRE 6A were 1 µg/mL (≈ 1.99 µM), 2 µg/mL (≈ 3.97 µM) and 1 µg/mL (≈ 1.99 µM), respectively.
Regarding `CC(=O)NC[C@H]1CN(c2ccc(N3C[C@@H]4[C@@H](CN(C)C(=O)Cc5cccs5)[C@@H]4C3)c(F)c2)C(=O)O1` [Compound No. 38, (S)-N-[[3-[3-Fluoro[4-[3-(1α,5α,6α)-6-[N-(2-thiopheneacetyl)-N-methyl]aminomethyl]-3-azabicyclo-[3.1.0]hexane]phenyl]-2-oxo-5-oxazolidinyl]methyl]acetamide], the MIC in the assay on MRSA 15187 came out at 4 µg/mL (≈ 7.99 µM); against S. aureus 25923 it was 4 µg/mL (≈ 7.99 µM); in the assay on S. pneum AB 34, 1 µg/mL (≈ 2 µM); with MRSA 33, 4 µg/mL (≈ 7.99 µM); with MRSA 562, 4 µg/mL (≈ 7.99 µM); in the assay with S. pneum 6303, 1 µg/mL (≈ 2 µM). For the same compound, the MIC in the assay with E. faecalis 29212 turned out to be 4 µg/mL (≈ 7.99 µM); in the assay with S. pyogenes 19615 it was 1 µg/mL (≈ 2 µM); in the assay on VRE 6A, 4 µg/mL (≈ 7.99 µM).
In the case of `CC(=O)NC[C@H]1CN(c2ccc(N3C[C@@H]4[C@@H](CN(C)Cc5ccc([N+](=O)[O-])s5)[C@@H]4C3)c(F)c2)C(=O)O1` [Compound No. 39, (S)-N-[[3-[3-Fluorol[4-[3-(1α,5α,6α)-6-[N-(5-nitro-2-thienyl-methyl)-N-methyl]aminomethyl]-3-azabicyclo-[3.1.0]hexane]phenyl]-2-oxo-5-oxazolidinyl]methyl]acetamide], the MIC came to 8 µg/mL (≈ 15.5 µM) with MRSA 15187; 8 µg/mL (≈ 15.5 µM) with S. aureus 25923; 0.5 µg/mL (≈ 0.966 µM) in the assay with S. pneum AB 34; 4 µg/mL (≈ 7.73 µM) in the assay on MRSA 33; 8 µg/mL (≈ 15.5 µM) in the assay on MRSA 562; 0.5 µg/mL (≈ 0.966 µM) in the assay on S. pneum 6303. The MIC in the assay on E. faecalis 29212 came to 2 µg/mL (≈ 3.86 µM); against S. pyogenes 19615, 0.5 µg/mL (≈ 0.966 µM); with VRE 6A, 8 µg/mL (≈ 15.5 µM).
As to `CC(=O)NC[C@H]1CN(c2ccc(N3CCC(N(C)Cc4ccc([N+](=O)[O-])s4)CC3)c(F)c2)C(=O)O1` [Compound No. 51, (S)-N-[[3-[4-[4-(N-methyl-N-2-thienyl(5-nitro)methyl)-aminopiperidine-1-yl]-3-fluorophenyl]-2oxo-oxazolidin-5-yl]methyl]acetamide], the MIC in the assay on MRSA 15187 was determined as 1 µg/mL (≈ 1.98 µM); against S. aureus 25923 it was 2 µg/mL (≈ 3.96 µM); against S. pneum AB 34, 2 µg/mL (≈ 3.96 µM); in the assay on MRSA 33, 1 µg/mL (≈ 1.98 µM); in the assay with MRSA 562, 1 µg/mL (≈ 1.98 µM); in the assay with E. faecalis 29212, 4 µg/mL (≈ 7.91 µM). Further, the values for the MIC against S. pyogenes 19615 and against VRE 6A were 0.5 µg/mL (≈ 0.989 µM) and 4 µg/mL (≈ 7.91 µM), respectively.
For the compound `CC(=O)NC[C@H]1CN(c2ccc(N3CCN(Cc4ccc(C=NN)o4)CC3)c(F)c2)C(=O)O1` [Compound No. 62, (S)-N-[[3-[3-Fluoro-4[N-1-[4-{2-furyl-(5-hydrazone)-methyl}]-piperazinyl]-phenyl]-2-oxo-5-oxazolidinyl]-methyl]acetamide], the MIC in the assay on MRSA 15187 was determined as 2 µg/mL (≈ 4.36 µM); with S. aureus 25923, 2 µg/mL (≈ 4.36 µM); against S. pneum AB 34, 8 µg/mL (≈ 17.4 µM); in the assay with MRSA 33, 2 µg/mL (≈ 4.36 µM); in the assay on MRSA 562, 1 µg/mL (≈ 2.18 µM); against S. pneum 6303 it was 8 µg/mL (≈ 17.4 µM). Also, the MIC in the assay with E. faecalis 29212, with S. pyogenes 19615 and in the assay on VRE 6A was 8 µg/mL (≈ 17.4 µM) each time.
